From ChEMBL document CHEMBL5149977, “FLT3 Inhibitors in Acute Myeloid Leukemia: Challenges and Recent Developments in Overcoming Resistance” (J Med Chem, 2021)
Blank lines part the entries; values can stand above or below the compound they belong to.

How the values were obtained:
BaF3 [1] = test: cells; conditions: Mus musculus
BaF3 [2] = test: cells; conditions: Mus musculus; remark: listed apart in the source
MOLM-14 [3] = test: cells; conditions: Homo sapiens
BaF3 [4] = test: cells; conditions: Mus musculus; remark: listed apart in the source
MV4-11 [5] = test: cells; conditions: Homo sapiens
[6] = molecular target: Receptor-type tyrosine-protein kinase FLT3 (Homo sapiens, UniProt P36888, ITD); test: Inhibition of FLT3-ITD (unknown origin)
BaF3 [7] = test: cells; conditions: Mus musculus; remark: listed apart in the source
BaF3 [8] = test: cells; conditions: Mus musculus; remark: listed apart in the source
BaF3 [9] = test: cells; conditions: Mus musculus; remark: listed apart in the source
[10] = molecular target: Platelet-derived growth factor receptor alpha (Homo sapiens, UniProt P16234); test: Inhibition of PDGFR alpha (unknown origin)
[11] = molecular target: Tyrosine-protein kinase Fgr (Homo sapiens, UniProt P09769); test: Inhibition of FGR (unknown origin)
[12] = molecular target: NT-3 growth factor receptor (Homo sapiens, UniProt Q16288); test: Inhibition of TrkC (unknown origin)
[13] = molecular target: Tyrosine-protein kinase ABL1 (Homo sapiens, UniProt P00519); test: Inhibition of ABL1 (unknown origin)
[14] = molecular target: Cyclin-dependent kinase 6 (Homo sapiens, UniProt Q00534); test: Inhibition of CDK6 (unknown origin)
[15] = molecular target: Receptor-type tyrosine-protein kinase FLT3 (Homo sapiens, UniProt P36888, D835Y); test: Binding affinity to FLT3-D835Y mutant (unknown origin) assessed as dissociation constant
MV4-11 [16] = test: Cytotoxicity against human MV4-11 cells incubated for 72 hrs; format: functional, cell-based; conditions: MV4-11, 72 h
MV4-11 [17] = test: Cytotoxicity against human MV4-11 cells […] incubated for 72 hrs; format: functional, cell-based; conditions: MV4-11, 72 h
[18] = molecular target: Cyclin-dependent kinase 2 (Homo sapiens, UniProt P24941); test: Inhibition of CDK2 (unknown origin)
[19] = molecular target: Receptor-type tyrosine-protein kinase FLT3 (Homo sapiens, UniProt P36888, D835H); test: Binding affinity to FLT3-D835H mutant (unknown origin) assessed as dissociation constant
[20] = molecular target: T1, Receptor-type tyrosine-protein kinase FLT3 (Homo sapiens, UniProt P36888)
T1 sequence (P36888 whole entry): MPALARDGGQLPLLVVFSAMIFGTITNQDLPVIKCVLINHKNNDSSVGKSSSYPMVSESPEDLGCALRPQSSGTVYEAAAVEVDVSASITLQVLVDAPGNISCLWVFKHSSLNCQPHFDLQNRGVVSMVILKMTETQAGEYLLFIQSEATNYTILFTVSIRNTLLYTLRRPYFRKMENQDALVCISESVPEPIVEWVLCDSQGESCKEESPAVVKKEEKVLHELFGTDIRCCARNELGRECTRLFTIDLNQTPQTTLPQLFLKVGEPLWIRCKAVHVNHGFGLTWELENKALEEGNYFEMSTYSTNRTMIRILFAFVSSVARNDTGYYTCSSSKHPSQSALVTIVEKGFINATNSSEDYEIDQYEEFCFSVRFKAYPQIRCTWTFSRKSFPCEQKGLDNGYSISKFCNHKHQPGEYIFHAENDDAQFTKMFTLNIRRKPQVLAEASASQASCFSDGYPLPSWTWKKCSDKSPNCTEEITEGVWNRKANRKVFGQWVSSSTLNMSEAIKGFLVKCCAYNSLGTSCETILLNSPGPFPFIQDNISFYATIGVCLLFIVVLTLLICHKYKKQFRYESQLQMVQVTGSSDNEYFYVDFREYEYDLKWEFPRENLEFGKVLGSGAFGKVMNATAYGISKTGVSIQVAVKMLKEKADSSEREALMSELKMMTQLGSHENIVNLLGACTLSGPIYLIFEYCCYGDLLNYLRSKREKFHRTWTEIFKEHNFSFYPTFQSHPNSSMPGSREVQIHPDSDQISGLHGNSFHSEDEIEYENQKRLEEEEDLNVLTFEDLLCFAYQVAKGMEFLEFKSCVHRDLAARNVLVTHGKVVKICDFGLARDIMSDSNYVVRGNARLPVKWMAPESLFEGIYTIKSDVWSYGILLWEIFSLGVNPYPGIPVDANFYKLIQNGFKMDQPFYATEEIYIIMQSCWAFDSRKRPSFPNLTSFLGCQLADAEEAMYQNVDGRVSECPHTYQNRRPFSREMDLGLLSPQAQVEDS

[21] = molecular target: Cyclin-dependent kinase 4 (Homo sapiens, UniProt P11802); test: Inhibition of CDK4 (unknown origin)
[22] = Antiproliferative activity against mouse 32D cells expressing FLT3-ITD-F691L assessed as cell growth inhibition; format: functional
[23] = Antiproliferative activity against mouse 32D cells expressing FLT3-ITD-Y842C assessed as cell growth inhibition; format: functional
[24] = Antiproliferative activity against mouse 32D cells expressing FLT3-ITD-Y842H assessed as cell growth inhibition; format: functional
[25] = Antiproliferative activity against mouse 32D cells expressing FLT3-D835Y assessed as cell growth inhibition; format: functional, cell-based
[26] = Antiproliferative activity against mouse 32D cells expressing FLT3-ITD-D835Y assessed as cell growth inhibition; format: functional
[27] = Antiproliferative activity against mouse 32D cells expressing FLT3-D835H assessed as cell growth inhibition; format: functional
[28] = Antiproliferative activity against mouse 32D cells expressing FLT3-ITD assessed as cell growth inhibition; format: functional, cell-based
[29] = molecular target: Leukocyte tyrosine kinase receptor (Homo sapiens) (UniProt P29376); test: Inhibition of LTK (unknown origin)
BaF3 [30] = test: cells; conditions: Mus musculus; remark: listed apart in the source
BaF3 [31] = test: cells; conditions: Mus musculus; remark: listed apart in the source
MOLM-13 [32] = test: Antiproliferative activity against human MOLM-13 cells incubated for 72 hrs by MTS assay; format: functional
MOLM-13 [33] = test: Antiproliferative activity against drug resistant human MOLM-13 cells incubated for 72 hrs by MTS assay; format: functional
MOLM-13 [34] = test: Cytotoxicity against human MOLM-13 cells expressing FLT3-D835Y measured after 72 hrs by cell titre glo assay; format: functional, cell-based; conditions: MOLM-13, 72 h
BaF3 [35] = test: Cytotoxicity against mouse BaF3 cells expressing FLT3-ITD-F691L measured after 72 hrs by cell titre glo assay; format: functional, cell-based; conditions: BaF3, 72 h
BaF3 [36] = test: Cytotoxicity against mouse BaF3 cells expressing FLT3-ITD-D835H measured after 72 hrs by cell titre glo assay; format: functional, cell-based; conditions: BaF3, 72 h
BaF3 [37] = test: Cytotoxicity against mouse BaF3 cells expressing FLT3-ITD measured after 72 hrs by cell titre glo assay; format: functional, cell-based; conditions: BaF3, 72 h
MOLM-13 [38] = test: Cytotoxicity against human MOLM-13 cells measured after 72 hrs by cell titre glo assay; format: functional, cell-based; conditions: MOLM-13, 72 h
BaF3 [39] = test: Cytotoxicity against mouse BaF3 cells expressing FLT3-ITD-D835Y measured after 72 hrs by cell titre glo assay; format: functional, cell-based; conditions: BaF3, 72 h
MOLM-14 [40] = test: cells; conditions: Homo sapiens; remark: listed apart in the source

Sequence of Cyclin-dependent kinase 6 (Q00534 whole entry): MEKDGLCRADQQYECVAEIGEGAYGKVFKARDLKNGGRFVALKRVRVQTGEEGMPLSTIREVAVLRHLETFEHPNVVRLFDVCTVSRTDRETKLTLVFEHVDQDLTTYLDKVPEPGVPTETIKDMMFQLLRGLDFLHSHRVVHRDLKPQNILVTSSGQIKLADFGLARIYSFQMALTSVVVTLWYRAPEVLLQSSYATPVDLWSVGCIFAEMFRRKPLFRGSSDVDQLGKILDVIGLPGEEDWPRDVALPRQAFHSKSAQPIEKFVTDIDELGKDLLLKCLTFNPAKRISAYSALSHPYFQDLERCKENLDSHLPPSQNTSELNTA
Sequence of Cyclin-dependent kinase 4 (P11802 whole entry): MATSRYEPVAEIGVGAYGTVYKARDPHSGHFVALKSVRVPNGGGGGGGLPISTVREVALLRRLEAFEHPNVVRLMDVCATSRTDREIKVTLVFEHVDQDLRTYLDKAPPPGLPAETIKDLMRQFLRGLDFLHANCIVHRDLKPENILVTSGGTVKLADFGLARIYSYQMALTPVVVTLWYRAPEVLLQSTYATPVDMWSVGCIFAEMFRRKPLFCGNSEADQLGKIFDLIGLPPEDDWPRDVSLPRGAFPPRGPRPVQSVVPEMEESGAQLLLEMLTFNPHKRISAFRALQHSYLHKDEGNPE
Sequence of NT-3 growth factor receptor (Q16288 whole entry): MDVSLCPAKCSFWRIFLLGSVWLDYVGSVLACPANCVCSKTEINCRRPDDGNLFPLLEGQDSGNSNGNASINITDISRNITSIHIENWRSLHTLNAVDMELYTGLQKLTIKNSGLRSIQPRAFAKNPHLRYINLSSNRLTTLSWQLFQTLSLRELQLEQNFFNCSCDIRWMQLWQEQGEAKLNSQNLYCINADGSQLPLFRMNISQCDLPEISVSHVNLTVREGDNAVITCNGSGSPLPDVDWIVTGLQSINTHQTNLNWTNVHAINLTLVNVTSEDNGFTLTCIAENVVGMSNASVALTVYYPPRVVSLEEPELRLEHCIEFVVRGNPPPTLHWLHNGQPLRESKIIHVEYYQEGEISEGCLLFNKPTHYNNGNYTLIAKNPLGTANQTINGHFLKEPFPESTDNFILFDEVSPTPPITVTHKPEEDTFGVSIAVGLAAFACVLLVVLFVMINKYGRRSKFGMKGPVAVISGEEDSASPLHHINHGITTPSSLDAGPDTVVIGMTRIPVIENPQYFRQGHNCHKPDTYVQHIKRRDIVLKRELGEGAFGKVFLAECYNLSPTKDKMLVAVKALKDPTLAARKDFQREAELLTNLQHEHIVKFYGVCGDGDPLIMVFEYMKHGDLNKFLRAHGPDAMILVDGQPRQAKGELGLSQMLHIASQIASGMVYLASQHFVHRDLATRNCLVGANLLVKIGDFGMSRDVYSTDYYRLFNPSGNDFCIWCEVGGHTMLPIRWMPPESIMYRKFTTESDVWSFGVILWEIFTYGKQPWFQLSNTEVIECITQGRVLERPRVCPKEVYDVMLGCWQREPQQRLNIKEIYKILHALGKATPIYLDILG
Sequence of Leukocyte tyrosine kinase receptor (Homo sapiens) (P29376 whole entry): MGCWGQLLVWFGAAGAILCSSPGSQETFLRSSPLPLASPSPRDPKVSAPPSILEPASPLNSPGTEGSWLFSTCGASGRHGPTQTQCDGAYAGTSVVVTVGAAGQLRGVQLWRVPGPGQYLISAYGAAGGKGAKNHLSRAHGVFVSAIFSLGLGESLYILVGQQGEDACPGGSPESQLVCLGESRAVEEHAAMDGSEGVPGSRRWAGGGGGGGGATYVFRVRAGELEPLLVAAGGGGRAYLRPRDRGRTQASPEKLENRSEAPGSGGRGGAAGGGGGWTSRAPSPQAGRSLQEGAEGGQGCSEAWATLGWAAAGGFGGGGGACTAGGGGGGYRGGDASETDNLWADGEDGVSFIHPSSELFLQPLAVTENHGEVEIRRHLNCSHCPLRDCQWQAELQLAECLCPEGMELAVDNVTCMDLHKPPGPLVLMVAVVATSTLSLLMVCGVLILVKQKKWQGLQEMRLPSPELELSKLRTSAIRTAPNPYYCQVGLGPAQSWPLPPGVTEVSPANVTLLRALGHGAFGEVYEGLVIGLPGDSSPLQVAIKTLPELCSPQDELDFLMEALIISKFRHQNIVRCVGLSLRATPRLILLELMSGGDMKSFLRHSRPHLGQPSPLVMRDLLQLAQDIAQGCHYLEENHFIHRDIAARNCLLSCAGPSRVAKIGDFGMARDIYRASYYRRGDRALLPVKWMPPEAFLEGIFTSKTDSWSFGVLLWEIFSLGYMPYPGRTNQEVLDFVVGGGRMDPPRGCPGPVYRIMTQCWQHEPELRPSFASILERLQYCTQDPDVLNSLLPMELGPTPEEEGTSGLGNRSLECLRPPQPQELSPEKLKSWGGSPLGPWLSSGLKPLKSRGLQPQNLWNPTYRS
Sequence of Tyrosine-protein kinase Fgr (P09769 whole entry): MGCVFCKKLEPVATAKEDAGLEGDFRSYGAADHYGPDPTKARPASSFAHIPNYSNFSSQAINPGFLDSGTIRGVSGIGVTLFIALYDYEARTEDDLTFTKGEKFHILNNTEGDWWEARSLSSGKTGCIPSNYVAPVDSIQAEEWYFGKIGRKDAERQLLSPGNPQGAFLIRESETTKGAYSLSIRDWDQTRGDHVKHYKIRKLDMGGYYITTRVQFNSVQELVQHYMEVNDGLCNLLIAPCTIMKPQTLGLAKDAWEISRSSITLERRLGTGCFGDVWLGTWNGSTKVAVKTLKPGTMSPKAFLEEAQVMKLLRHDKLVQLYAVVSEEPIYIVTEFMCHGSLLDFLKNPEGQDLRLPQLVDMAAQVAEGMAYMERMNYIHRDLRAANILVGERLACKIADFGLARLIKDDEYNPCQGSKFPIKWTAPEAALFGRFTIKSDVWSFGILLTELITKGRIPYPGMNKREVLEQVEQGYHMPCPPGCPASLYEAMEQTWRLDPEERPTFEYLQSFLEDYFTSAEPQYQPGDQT
Sequence of Tyrosine-protein kinase ABL1 (P00519 whole entry): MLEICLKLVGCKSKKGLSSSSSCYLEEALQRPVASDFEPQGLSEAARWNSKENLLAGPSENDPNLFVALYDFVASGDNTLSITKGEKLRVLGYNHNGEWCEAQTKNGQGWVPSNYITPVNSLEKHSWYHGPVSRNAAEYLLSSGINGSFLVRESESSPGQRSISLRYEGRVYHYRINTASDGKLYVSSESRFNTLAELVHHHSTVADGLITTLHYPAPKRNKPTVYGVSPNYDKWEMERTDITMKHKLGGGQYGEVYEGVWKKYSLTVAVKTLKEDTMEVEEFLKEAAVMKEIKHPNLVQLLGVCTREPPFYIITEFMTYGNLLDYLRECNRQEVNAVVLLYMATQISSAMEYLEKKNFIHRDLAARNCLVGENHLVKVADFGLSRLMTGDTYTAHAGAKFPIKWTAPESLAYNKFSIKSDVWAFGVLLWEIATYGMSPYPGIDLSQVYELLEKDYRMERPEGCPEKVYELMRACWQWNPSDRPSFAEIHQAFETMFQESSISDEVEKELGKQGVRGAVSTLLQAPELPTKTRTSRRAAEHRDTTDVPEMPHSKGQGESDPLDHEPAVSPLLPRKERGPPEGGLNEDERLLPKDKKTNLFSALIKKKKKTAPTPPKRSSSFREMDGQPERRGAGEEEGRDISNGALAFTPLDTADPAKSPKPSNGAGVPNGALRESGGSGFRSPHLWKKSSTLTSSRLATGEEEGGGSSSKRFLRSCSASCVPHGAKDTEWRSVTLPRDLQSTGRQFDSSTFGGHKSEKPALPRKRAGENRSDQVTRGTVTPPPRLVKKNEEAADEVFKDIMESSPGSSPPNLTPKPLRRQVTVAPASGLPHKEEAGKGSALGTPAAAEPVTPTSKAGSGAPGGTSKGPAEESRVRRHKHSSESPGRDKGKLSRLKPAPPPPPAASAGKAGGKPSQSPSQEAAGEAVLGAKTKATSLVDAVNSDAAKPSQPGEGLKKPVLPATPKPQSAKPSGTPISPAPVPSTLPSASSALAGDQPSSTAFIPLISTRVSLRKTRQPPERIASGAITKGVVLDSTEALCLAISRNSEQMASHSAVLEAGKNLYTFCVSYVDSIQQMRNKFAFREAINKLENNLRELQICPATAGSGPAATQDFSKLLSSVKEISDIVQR

SMILES: COc1cc2c(Oc3ccc(NC(=O)Nc4cccc(C)c4)cc3F)ccnc2cc1OCCCN1CCOCC1
IC50 (BaF3 [1]): 2.5 nM
IC50 (BaF3 [2]): 1.1 nM
IC50 (MOLM-14 [3]): 0.13 nM
IC50 (BaF3 [4]): 22 nM
IC50 (MV4-11 [5]): 0.14 nM
IC50 [6]: 7 nM
IC50 (BaF3 [7]): 0.22 nM
IC50 (BaF3 [8]): 0.19 nM
IC50 (BaF3 [9]): 0.17 nM

SMILES: COc1cc2ncc(-c3cccc(NC4CCNC4)n3)n2cc1-c1cnn(C)c1 (centres undefined)
IC50 [10]: 1.1 nM
IC50 [11]: < 0.5 nM
IC50 [12]: 0.7 nM
IC50 [13]: 0.6 nM

SMILES: C[C@H]1CC[C@@H](n2c3cnccc3c3cnc(Nc4ccc5c(n4)CCN(C(=O)CO)C5)nc32)CC1
IC50 [14]: 8 nM
Kd [15]: 1 nM
IC50 (MV4-11 [16]): 18 nM
IC50 (MV4-11 [17]): 9 nM
IC50 [18]: 375 nM
Kd [6]: 4 nM
Kd [19]: 1 nM
IC50 [20]: 1 nM
IC50 [21]: 3 nM

SMILES: CCCNc1nc(Nc2ccc(C#N)cc2)ncc1C#CCCCNC(=O)[C@H](C)N(C)C(=O)/C=C/CN(C)C [FF-10101]
GI50 [22]: 10 nM
GI50 [23]: 3.5 nM
GI50 [24]: 5.3 nM
IC50 [25]: 0.32 nM
GI50 [26]: 0.81 nM
GI50 [27]: 1.1 nM
IC50 [28]: 1.9 nM

SMILES: C1=N/C2=N/c3ccc(OCCN4CCCC4)c(c3)COC/C=C/COCc3cccc(c3)C(=C1)N2 [PACRITINIB]
IC50 (MOLM-13 [34]): 173 nM
IC50 (BaF3 [35]): 291 nM
IC50 (BaF3 [36]): 306 nM
IC50 (BaF3 [37]): 133 nM
IC50 (MOLM-13 [38]): 73 nM
IC50 (BaF3 [39]): 434 nM

Now from value to compound:

IC50 [29]: 0.35 nM
IC50 (BaF3 [30]): 1.8 nM
IC50 (BaF3 [31]): 2.1 nM
SMILES: CCc1nc(C(N)=O)c(Nc2ccc(N3CCC(N4CCN(C)CC4)CC3)c(OC)c2)nc1NC1CCOCC1 [GILTERITINIB]

GI50 (MOLM-13 [32]): 100 nM
GI50 (MOLM-13 [33]): 180 nM
SMILES: Cc1nn(C)cc1-c1nc2c(N3CCN(Cc4ccc(Cl)cc4)CC3)c(Cl)cnc2[nH]1 [MOBINITINIB]

IC50 (BaF3 [1]): 2.5 nM
IC50 (BaF3 [2]): 97 nM
IC50 (MOLM-14 [3]): 350 nM
IC50 (BaF3 [4]): 4700 nM
IC50 (MV4-11 [5]): 200 nM
IC50 (BaF3 [7]): 130 nM
IC50 (BaF3 [8]): 0.19 nM
IC50 (BaF3 [9]): 0.17 nM
IC50 (MOLM-14 [40]): 670 nM
SMILES: FC(F)(F)c1ccc(CNc2ccc(Cc3c[nH]c4ncc(Cl)cc34)cn2)cn1 [PEXIDARTINIB]
